“Also recorded” adds a separate entry of the source.
How the values were obtained:
[1] = target: T1, DHR-2 domain of DOCK1 (Homo sapiens, UniProt Q14185); experiment: in vitro GEF assay (Bodipy-FL-GTP loading of Rac); assay type: biochemical; conditions: from IC50 values for DOCK1, DOCK2, DOCK5
T1 construct: Polypeptide fragments that correspond to the DHR-2 domain of DOCK1, DOCK2, or DOCK5; Histidine-SUMO (N); made in house; host or cells: E. coli Arctic express (DE3)
T1 sequence (Q14185 1207-1617 limits assumed): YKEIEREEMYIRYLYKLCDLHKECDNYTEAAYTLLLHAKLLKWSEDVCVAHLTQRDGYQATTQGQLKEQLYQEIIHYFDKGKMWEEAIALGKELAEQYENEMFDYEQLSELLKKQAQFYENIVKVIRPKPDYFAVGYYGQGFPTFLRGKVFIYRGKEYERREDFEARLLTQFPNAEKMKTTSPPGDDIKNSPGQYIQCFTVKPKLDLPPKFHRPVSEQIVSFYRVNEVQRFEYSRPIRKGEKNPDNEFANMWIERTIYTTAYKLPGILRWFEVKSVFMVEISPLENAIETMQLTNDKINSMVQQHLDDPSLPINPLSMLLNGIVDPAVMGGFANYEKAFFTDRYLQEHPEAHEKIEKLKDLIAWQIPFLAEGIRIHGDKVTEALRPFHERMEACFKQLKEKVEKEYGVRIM
Text: Pharmacological Test 1 (In Vitro GEF Assay)
DOCK1, DOCK2, and DOCK5, which are DOCK-A subfamily members, catalyze the GTP-GDP exchange reaction for Rac via the DHR-2 domain to activate Rac.
The in vitro GEF assay referred to in this specification used a labeled GTP (Bodipy-FL-GTP, Invitrogen), whose fluorescence intensity increases when bound to Rac.
Polypeptide fragments that correspond to the DHR-2 domain of DOCK1, DOCK2, or DOCK5 were expressed in E. coli Arctic express (DE3) cells as N-terminal Histidine-SUMO tag-fused recombinant proteins and purified by affinity column chromatography on nickel-NTA columns.
Rac was expressed in E. coli BL21 (DE3) cells as an N-terminal GST tag-fused recombinant protein and purified by affinity column chromatography on glutathione-Sepharose columns.
Subsequently, a reaction solution A containing 20 mM of MES-NaOH, 150 mM of NaCl, 10 mM of MgCl2, and 20 μM of GDP, and having an adjusted pH of 7.0 was incubated at room temperature for 30 minutes while being protected from light in the presence of each of the polypeptide fragments (DHR-2 domains) prepared above and each pyridinone compound or CPYPP dissolved at a predetermined concentration in DMSO or DMSO alone (control) to thus prepare GEF pretreated products. In all of the samples, the final DMSO concentration was adjusted to 3%.
Thereafter, 15 μM of Rac prepared above was added to the reaction solution A and directly allowed to stand on ice for 30 minutes to form a GDP-Rac complex.
Bodipy-FL-GTP was added to 100 μL of the reaction solution A containing the thus prepared GDP-Rac complex to a concentration of 3.6 μM, followed by equilibration at 30° C. for 2 minutes. After equilibration, 50 μL of the pretreated GEF was added for reaction at 30° C.
Changes in fluorescence intensity of Bodipy-FL-GTP were monitored during the reaction using an XS-N (Molecular Devices) or an Enspire spectrofluorometer (Perkin Elmer) (excitation wavelength: 488 nm, emission wavelength: 514 nm). The measured values were corrected so that the fluorescence intensity at the time that the reaction was initiated (0 seconds) was 0.
Then, an approximate curve (hyperbola) was obtained by plotting the calculated correction values on the y axis and the time (t) on the x axis using GraphPad Prism5 (GraphPad software), and the slope at t=0 to 10 seconds was considered to be an initial velocity of guanine nucleotide exchange reaction. The IC50 value was calculated taking the initial reaction velocity of the control, to which only a solvent (DMSO) was added, as 100%.

[2] = tested on: mouse lung carcinoma cell line (3LL); experiment: cellular invasion inhibition assay (Matrigel chamber); assay type: cell-based; conditions: 3LL cells; for inhibition of cancer cell (3LL) invasion: 22 hours, compared to DMSO; for IC50: Mus musculus, FIG. 12(B), read-out: IC50 value calculated from cancer cell invasion inhibition
Protocol: Pharmacological Test 2 (Cellular Invasion Inhibition Assay)
Three hundred microliters of a suspension of a mouse lung carcinoma cell line (3LL), a human fibrosarcoma cell line (HT-1080), or a human colon cancer cell line (DLD-1) in DMEM (serum free) was placed in the upper chamber with Matrigel (BD Biosciences) equilibrated with DMEM (serum free) for 120 minutes, while 500 μL of DMEM (with 10% FCS) was placed in the lower chamber. Each pyridinone compound or CPYPP dissolved at a predetermined concentration in DMSO was added to the culture media in both the upper and lower chambers. As a control, DMSO alone was added to the media. In all of the experiments, the final DMSO concentration was adjusted to 0.2%.
After the resulting products were cultured at 37° C. under 5% CO2 for 22 hours, the chambers were removed, and the culture media were removed. […] After staining, the inserts were cut out with a blade to prepare slides, and the cells were counted under an optical microscope.
The results were evaluated based on percent cell invasion (%: Invasion) and percent inhibition (%: inhibition). The percent cell invasion was obtained by converting the number of invading cells under each condition to percentage, taking the number of invading cells in the control, to which DMSO was added alone, as 100%; and the percent inhibition was obtained by deducting the percent cell invasion from 100.

[3] = tested on: HT-1080 cells; experiment: inhibition of macropinocytosis (TMR-dextran uptake); assay type: cell-based, human
Protocol: Pharmacological Test 5 (Experiment of Inhibition of Macropinocytosis of Cancer Cells)
Macropinocytosis is a phenomenon in which cells take up various substances together with extracellular fluid while extending cellular membranes. Remodeling of actin cytoskeleton through Rac activity is known to be important.
One hundred and fifty microliters of 4×10^4 3LL cells or HT-1080 cells were seeded on the glass portion of fibronectin-coated glass-bottom culture dishes. After 16-hour culture at 37° C., the medium was changed to DMEM (serum free) and cultured for 24 hours to allow the cells to be serum-starved. Subsequently, the medium was changed to 2 mL of serum-free medium containing DMSO alone or DMSO in which each pyridinone compound was dissolved, followed by pretreatment for 1 hour. The final concentration of DMSO was adjusted to 0.2%.
The cells were added to 180 μL of medium with TMR-dextran (final concentration: 500 μg/mL)-containing DMEM (with 10% FBS) containing DMSO alone or DMSO in which a predetermined concentration of each pyridinone compound was dissolved, as in the case above, followed by incubation at 37° C. for 1 hour. Thereafter, the cells were fixed by 60-minute incubation at room temperature in a 4% paraformaldehyde solution. […] The macropinocytosis activity was measured based on the number of TMR-dextran spots per cell. […]

| selectivity of GEF inhibition to DOCK1 versus DOCK2 and DOCK5 [1] | IC50 [2] [µM] | SMILES | inhibition of cancer cell (3LL) invasion [2] | inhibition of macropinocytosis [3] |
| --- | --- | --- | --- | --- |
| high selectivity to DOCK1 | 3 | O=C(Cn1cc(S(=O)(=O)N2CCCC2)ccc1=O)c1ccc(-c2cccc(C(F)(F)F)c2)cc1 [TS-45, 1-(2-oxo-2-(3′-(trifluoromethyl)-[1,1′-biphenyl]-4-yl)ethyl)-5-(pyrrolidin-1-ylsulfonyl)pyridin-2(1H)-one] | significantly excellent inhibitory effect; also recorded: inhibit cancer cell invasion in a concentration-dependent manner | inhibit macropinocytosis in 3LL cells and HT-1080 cells in a concentration-dependent manner |
| high selectivity to DOCK1 | 5.6 | O=C(Cn1cc(S(=O)(=O)N2CCCC2)ccc1=O)c1ccc(-c2ccc3ccccc3c2)cc1 [TS-28, 1-(2-(4-(naphthalen-2-yl)phenyl)-2-oxoethyl)-5-(pyrrolidin-1-ylsulfonyl)pyridin-2(1H)-one] | significantly excellent inhibitory effect; also recorded: inhibit cancer cell invasion in a concentration-dependent manner | inhibit macropinocytosis in 3LL cells and HT-1080 cells in a concentration-dependent manner |

Reference: patent US11311523B2, “Pyridinone compound and use thereof” (KYUSHU UNIVERSITY, NATIONAL UNIVERSITY CORPORATION, priority 2015, dated 2022)
